The values that follow come from patent US20080021056A1, “Fused, Tricyclic Sulfonamide Inhibitors of Gamma Secretase” (priority 2006, published 2008).

The assay deals with T1, gamma-secretase (Homo sapiens, UniProt P49768).
T1 construct: partially purified extract of IMR-32 cell membranes as the gamma-secretase enzyme preparation; endogenous in cells; host or cells: IMR-32 cell membranes (partially purified extract)
Kind of assay: Gamma-secretase APP enzyme assay. To be noted: cleavage of MBP-C125 Swe substrate at the Aβ40 site; partially purified extract of IMR-32 cell membranes; ELISA. It counts as biochemical. The text has this:
The gamma-secretase APP enzyme assay was designed to measure the specific proteolytic cleavage of an APP substrate (MBP-C125 Swe fusion protein) at the Aβ40 site. The assay used a partially purified extract of IMR-32 cell membranes as the gamma-secretase enzyme preparation and a recombinant fusion protein containing the C-terminal 125 amino acids of the Swedish variant of the APP (MBP-C125swe) as the substrate. This assay involved two steps beginning with the enzymatic reaction generating a cleavage product that was captured with an immobilized antibody specific for the neo-epitope Aβ40 site. The captured cleavage product was then detected in a sandwich ELISA assay with a biotinylated reporter antibody that is specific to Aβ (17-28). Streptavidin-linked alkaline phosphatase was then added that would generate a fluorescent signal proportional to the amount of cleavage product. This assay was used to discover small molecule inhibitors of gamma-secretase.
Briefly, a 149 mg/ml solution of BIGCHAP detergent was made with water at 42° C. and then rotated for 30 minutes at the same temperatures This warmed solution of BigCHAPS (N,N-Bis(3-D-gluconamidopropyl)cholamide) detergent was used to dissolve Brain Extract Type-V (lipid containing a minimum of 40% phosphatidylethanolamine) from Signa (St. Louis, Mo.) to a concentration of 8 mg/ml. This solution containing BigCHAPS and lipid at 8 mg/ml is then diluted to 0.53 mg/ml lipid with a pre-warmed solution of Hepes and sodium chloride. This final solution containing Hepes buffer, sodium chloride, BigCHAPS detergent and lipid is used to create working solutions of both gamma-secretase (25 Units) and the MBP-C125 substrate (0.05 mg/ml).
Gamma-secretase was then added to a 96-well micro-titre plate and then incubated with various concentrations of inhibitor for 30 minutes at 37° C. MBPC125 substrate was then added to initiate the reaction that would run for two hours at 37° C. The reaction was quenched with the addition of SDS to a final concentration of 0.1% and then 100 μl of the reaction mixture was transferred to a capture ELISA plate and incubated overnight at 4° C. Detection of the cleavage product was performed using a standard sandwich ELISA assay and quantified using a six point standard curve.
In general terms: In an ELISA, binding on a coated surface is turned into a signal by an enzyme label.
With `O=S(=O)(c1ccc(C(F)(F)F)cc1)N1c2nccn2-c2[nH]ncc2C1C1CC1` (stereo not drawn) [4-cyclopropyl-5-(4-(trifluoromethyl)phenylsulfonyl)-4,5-dihydro-1H-imidazo[1,2-a]pyrazolo[4,3-e]pyrimidine], the IC50 (usually the concentration that gives 50% inhibition) lay in the range of 501 to 1000 nM.
For `O=S(=O)(c1ccc(C(F)(F)F)cc1)N1c2cccnc2-c2n[nH]cc2C1C1CC1` (stereo not drawn) [4-cyclopropyl-5-(4-(trifluoromethyl)phenylsulfonyl)-4,5-dihydro-2H-pyrazolo[4,3-c][1,5]naphthyridine], the concentration for half-maximal inhibition (IC50) fell in the range of 0.1 to 100 nM.
As to `O=S(=O)(c1ccc(C(F)(F)F)cc1)N1c2ncccc2-c2n[nH]cc2C1C1CC1` (stereo not drawn) [4-cyclopropyl-5-(4-(trifluoromethyl)phenylsulfonyl)-4,5-dihydro-2H-pyrazolo[4,3-c][1,8]naphythyridine], the concentration for half-maximal inhibition (IC50) lay in the range of 0.1 to 100 nM.
Regarding `O=S(=O)(c1ccc(C(F)(F)F)cc1)N1c2c[n+]([O-])ccc2-c2n[nH]cc2C1C1CC1` (stereo not drawn) [4-cyclopropyl-5-(4-(trifluoromethylphenylsulfonyl)-4,5-dihydro-2H-pyrazolo[4,3-c][1,7]naphthyridine 7-oxide], the IC50 is 0.1 to 100 nM.
Take `O=S(=O)(c1ccc(F)cc1)N1c2ncccc2-c2n[nH]cc2C1C1CC1` (stereo not drawn) [4-cyclopropyl-5-(4-fluorophenylsulfonyl)-4,5-dihydro-2H-pyrazolo[4,3-c][1,8]naphthyridine]: the IC50 is 0.1 to 100 nM.
`O=S(=O)(c1ccc(F)cc1)N1c2ccccc2-c2n[nH]cc2C1C1CC1` (stereo not drawn) [4-cyclopropyl-5-(4-fluorophenylsulfonyl)-4,5-dihydro-2H-pyrazolo[4,3-c]quinoline] yielded a concentration for half-maximal inhibition (IC50) of 0.1 to 100 nM.
The molecule `O=S(=O)(c1ccc(C(F)(F)F)nc1)N1c2ccccc2-c2[nH]ncc2C1C1CC1` (stereo not drawn) [4-cyclopropyl-5-(6-(trifluoromethyl)pyridin-3-ylsulfonyl)-4,5-dihydro-1H-pyrazolo[4,3-c]quinoline] returned an IC50 of 0.1 to 100 nM.
In turn, `O=S(=O)(c1ccc(OC(F)(F)F)cc1)N1c2cc(F)c(F)cc2-c2[nH]ncc2C1C1CC1` (stereo not drawn) [4-cyclopropyl-7,8-difluoro-5-(4-(trifluoromethoxy)phenylsulfonyl)-4,5-dihydro-1H-pyrazolo[4,3-c]quinoline] returned an IC50 of 0.1 to 100 nM.
As to `O=S(=O)(c1ccc(F)cc1)N1c2cc(F)c(F)cc2-c2n[nH]cc2C1C1CC1` (stereo not drawn) [4-cyclopropyl-7,8-difluoro-5-(4-fluorophenylsulfonyl)-4,5-dihydro-2H-pyrazolo[4,3-c]quinoline], the IC50 was in the range of 0.1 to 100 nM.
Turning to `O=S(=O)(c1ccc(C(F)(F)F)cn1)N1c2cc(F)c(F)cc2-c2[nH]ncc2C1C1CC1` (stereo not drawn) [4-cyclopropyl-7,8-difluoro-5-(5-(trifluoromethyl)pyridin-2-ylsulfonyl)-4,5-dihydro-1H-pyrazolo[4,3-c]quinoline], the IC50 is 0.1 to 100 nM.
To `O=S(=O)(c1ccc(C(F)(F)F)nc1)N1c2cc(F)c(F)cc2-c2[nH]ncc2C1C1CC1` (stereo not drawn) [4-cyclopropyl-7,8-difluoro-5-(6-(trifluoromethyl)pyridin-3-ylsulfonyl)-4,5-dihydro-1H-pyrazolo[4,3-c]quinoline] belongs 0.1 to 100 nM; to `O=S(=O)(c1cccs1)N1c2cc(F)c(F)cc2-c2n[nH]cc2C1C1CC1` (stereo not drawn) [4-cyclopropyl-7,8-difluoro-5-(thiophen-2-ylsulfonyl)-4,5-dihydro-2H-pyrazolo[4,3-c]quinoline], 0.1 to 100 nM.
`Cc1nc2c(s1)N(S(=O)(=O)c1ccc(C(F)(F)F)cc1)C(C1CC1)c1c[nH]nc1-2` (stereo not drawn) [4-cyclopropyl-7-methyl-5-(4-(trifluoromethyl)phenylsulfonyl)-4,5-dihydro-1H-pyrazolo[3,4-d]thiazolo[5,4-b]pyridine] had a concentration for half-maximal inhibition (IC50) of 0.1 to 100 nM.
`CCC1c2cn[nH]c2-c2cc(F)c(F)cc2N1S(=O)(=O)c1ccc(C(F)(F)F)cn1` (stereo not drawn) [4-ethyl-7,8-difluoro-5-(5-(trifluoromethyl)pyridin-2-ylsulfonyl)-4,5-dihydro-1H-pyrazolo[4,3-c]quinoline] came in with an IC50 of 0.1 to 100 nM.
The molecule `CC1c2c[nH]nc2-c2ccccc2N1S(=O)(=O)c1ccccn1` (stereo not drawn) [4-methyl-5-(pyridin-2-ylsulfonyl)-4,5-dihydro-2H-pyrazolo[4,3-c]quinoline] yielded an IC50 of 101 to 500 nM.
